Values of other authors in US20240170163A1, “SYSTEMS AND METHODS FOR DETECTING NEW DRUG PROPERTIES IN TARGET-BASED DRUG-DRUG SIMILARITY NETWORKS” (priority 2021, published 2024).

Tests used:
[1] = system: chronic lymphocytic leukemia (CLL)
[2] = system: PR-transfected MDA-MB-231 cells
Klebsiella pneumoniae = conditions: in vitro
Candida albicans = conditions: in vitro
Candida = conditions: liquid formulation, in vitro
prostate carcinoma cells = conditions: in vitro

## COc1cc([C@@H]2c3cc4c(cc3[C@H](O)[C@H]3COC(=O)[C@H]23)OCO4)cc(OC)c1OC [Podofilox]
[1]
  cytotoxicity in chronic lymphocytic leukemia (CLL): potent cytotoxic agent

## CC(=O)[C@H]1CC[C@H]2[C@@H]3CCC4=CC(=O)CC[C@]4(C)[C@H]3CC[C@]12C [Progesterone]
[2]
  expression of genes involved in cell proliferation and metastasis: suppressed the expression

## FC(F)OC(Cl)C(F)(F)F (stereo not shown) [Isoflurane]
Klebsiella pneumoniae
  inhibitory effects on cultures of Klebsiella pneumoniae: excellent inhibitory effects
Candida albicans
  inhibitory effects on cultures of Candida albicans: excellent inhibitory effects
Candida
  anti-Candida activity compared with Amphotericin B: better anti-Candida activity

## CCN(CC)CCCC(C)Nc1c2ccc(Cl)cc2nc2ccc(OC)cc12 (stereo not shown) [Quinacrine]
Breast cancer
  DNA damage in breast cancer: induces DNA damage
  apoptosis / cell cycle effect in breast cancer: produces apoptosis by blocking cells in S-phase
  topoisomerase activity in breast cancer: inhibits topoisomerase activity

## N=C(N)NC(=O)c1nc(Cl)c(N)nc1N [Amiloride]
Dendritic cells
  activation of the dendritic cells: inhibits the activation
Dendritic cells; besides its diuretic effects
  inflammation: ameliorates the inflammation

## COC(F)(F)C(Cl)Cl [Methoxyflurane]
Klebsiella pneumoniae
  inhibitory effects on cultures of Klebsiella pneumoniae: excellent inhibitory effects
Candida albicans
  inhibitory effects on cultures of Candida albicans: excellent inhibitory effects

## NC(Cn1ccc(=O)c(O)c1)C(=O)O (stereo not shown) [Mimosine]
Prostate carcinoma cells
  cell proliferation of prostate carcinoma cells: attenuates cell proliferation
